The structures appear in SMILES notation.

In experiment [1] the target is T1, MC4-R (Homo sapiens, UniProt P32245). The experiment can be described thus: cAMP agonist stimulation, high receptor density system (10 ng/mL doxycycline). The following applies: for Efficacy/Intrinsic Activity: 10 ng/mL doxycycline, high receptor density hMC4-R system, NDP-α-MSH maximal cAMP = 1.0.
Experiment [2] deals with T1, MC4-R. The experiment can be described thus: cAMP functional activity assay in HEK-293 cells, normal system. It is filed as cell-based. The following applies: for intrinsic activity at MC4-R in a normal system: normal receptor density system, NDP-α-MSH = 1.0; for functional status at MC4-R in cAMP assay: normal system, 1 μM concentration where stated. Details: expressed in transfected cells; host or cells: HEK-293. A general note: Changes in cAMP serve as a functional read-out for many G protein-coupled receptors.

The target of experiment [3] is T1, MC4-R. Description: cAMP agonist stimulation, low receptor density system (0.1 ng/mL doxycycline). The following applies: 0.1 ng/mL doxycycline, low receptor density hMC4-R system; NDP-α-MSH maximal cAMP = 1.0.
Experiment [4] has as its target T2, MC1-R (Mus musculus, UniProt Q01727).
T2 construct: B-16 mouse melanoma cells (containing MC1-R); endogenous in cells
Description: cAMP functional activity assay in B-16 mouse melanoma cells. Type of experiment: cell-based. The following applies: 1 μM concentration where stated. Here is the method:
(§1) General method for EC50 determination in functional activity assay. […] Data analysis and EC50 values were determined using nonlinear regression analysis with Prism Graph-Pad software.
(§2) Functional status. The agonist/antagonist status with respect to MC1-R, MC-3R, MC4-R and MC5-R of certain compounds of the invention was determined. Antagonistic activity was determined by measuring the inhibition of α-MSH-induced or NDP-α-MSH-induced cAMP levels following exposure to graded doses of compounds as in the preceding descriptions.

The target in experiment [5] is T3, MC5-R (Homo sapiens, UniProt P33032). Description: cAMP functional activity assay in HEK-293 cells. Type of experiment: cell-based. The arrangement: expressed in transfected cells; host or cells: HEK-293. The conditions noted are these: 1 μM concentration where stated. The procedure: as §1, §2
Experiment [6] deals with T4, MC3-R (Homo sapiens, UniProt P41968). The experiment can be described thus: cAMP functional activity assay in HEK-293 cells. It is filed as cell-based. Details: expressed in transfected cells; host or cells: HEK-293. The conditions noted are these: 1 μM concentration where stated. Here is the method: as §1, §2
Experiment [7] deals with T2, MC1-R. The experiment can be described thus: Competitive inhibition assay using [I^125]-NDP-α-MSH, B-16 mouse melanoma cell membranes. Type of experiment: binding. The following applies: for inhibition at 1 µM: 1 μM test compound, read-out: Inhibition at 1 μM (NDP-α-MSH) In Normal System, MC1-R; for Ki: read-out: Ki (nM) (NDP-α-MSH) In Normal System, MC1-R. The procedure, abridged: (§3)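 Tracer was 0.4 nM for MC3-R and MC5-R, 0.2 nM for MC4-R and 0.1 nM for MC1-R. Bound radioactivity was gamma-counted after filtration; values are triplicate means, with results below 0% reported as 0%.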

Experiment [8] has as its target T3, MC5-R. The experiment can be described thus: Competitive inhibition assay using [I^125]-NDP-α-MSH, hMC5-R membranes. Type of experiment: binding. Details: expressed in transfected cells. The following applies: 1 μM test compound; read-out: Inhibition at 1 μM (NDP-α-MSH) In Normal System, MC5-R. The procedure, abridged:
as §3

Experiment [9] addresses T4, MC3-R. The experiment can be described thus: Competitive inhibition assay using [I^125]-NDP-α-MSH, hMC3-R membranes. It is filed as binding. Details: expressed in transfected cells. The following applies: 1 μM test compound; read-out: Inhibition at 1 μM (NDP-α-MSH) In Normal System, MC3-R. The essentials:
as §3

Experiment [10] in a line: Penile erection induction in male rats. It is filed as in vivo. The conditions noted are these: rat. The procedure, abridged: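 Male Sprague-Dawley rats (200-250 g), groups of 4-8, dosed IV or ICV at various doses and observed individually for penile erections. Only statistically relevant increases over vehicle-control mean PEs count as induction; IV responses below 1.0 PEs/rat treated as equivocal, some retested ICV.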

The target of experiment [11] is T1, MC4-R. Description: Competitive inhibition assay using [I^125]-NDP-α-MSH, hMC4-R membranes. Type of experiment: binding. The conditions noted are these: 1 μM test compound; read-out: Inhibition at 1 μM (NDP-α-MSH) In Normal System, MC4-R. Details: host or cells: TREx-293 (HEK-293 stably expressing Tet repressor). The procedure, abridged: as §3

T4 sequence (P41968 whole entry): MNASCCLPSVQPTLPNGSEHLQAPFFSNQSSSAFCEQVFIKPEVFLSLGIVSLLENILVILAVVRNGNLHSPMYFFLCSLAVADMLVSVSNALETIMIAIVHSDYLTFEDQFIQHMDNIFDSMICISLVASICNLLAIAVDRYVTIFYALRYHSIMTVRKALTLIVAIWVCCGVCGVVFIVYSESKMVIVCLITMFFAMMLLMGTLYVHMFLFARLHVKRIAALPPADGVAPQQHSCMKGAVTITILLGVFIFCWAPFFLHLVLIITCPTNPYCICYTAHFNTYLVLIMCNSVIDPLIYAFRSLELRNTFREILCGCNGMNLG
T3 sequence (P33032 whole entry): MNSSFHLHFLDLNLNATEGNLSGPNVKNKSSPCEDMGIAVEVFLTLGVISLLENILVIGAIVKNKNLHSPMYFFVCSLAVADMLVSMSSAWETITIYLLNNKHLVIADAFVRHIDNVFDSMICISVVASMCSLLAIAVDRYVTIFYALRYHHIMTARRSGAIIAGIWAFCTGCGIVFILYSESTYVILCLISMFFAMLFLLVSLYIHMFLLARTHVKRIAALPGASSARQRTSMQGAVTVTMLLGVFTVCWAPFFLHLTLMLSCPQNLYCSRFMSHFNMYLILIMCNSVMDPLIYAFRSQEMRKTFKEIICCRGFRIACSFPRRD
T2 sequence (Q01727 whole entry): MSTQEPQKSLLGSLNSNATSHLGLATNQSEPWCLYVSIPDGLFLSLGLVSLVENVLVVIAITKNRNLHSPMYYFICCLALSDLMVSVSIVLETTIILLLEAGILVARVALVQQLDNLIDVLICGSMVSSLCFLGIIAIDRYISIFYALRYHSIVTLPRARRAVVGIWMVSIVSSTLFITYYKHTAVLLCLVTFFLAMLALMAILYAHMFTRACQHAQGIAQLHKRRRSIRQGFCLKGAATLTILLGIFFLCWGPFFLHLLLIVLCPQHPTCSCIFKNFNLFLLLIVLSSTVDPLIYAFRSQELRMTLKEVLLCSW
T1 sequence (P32245 whole entry): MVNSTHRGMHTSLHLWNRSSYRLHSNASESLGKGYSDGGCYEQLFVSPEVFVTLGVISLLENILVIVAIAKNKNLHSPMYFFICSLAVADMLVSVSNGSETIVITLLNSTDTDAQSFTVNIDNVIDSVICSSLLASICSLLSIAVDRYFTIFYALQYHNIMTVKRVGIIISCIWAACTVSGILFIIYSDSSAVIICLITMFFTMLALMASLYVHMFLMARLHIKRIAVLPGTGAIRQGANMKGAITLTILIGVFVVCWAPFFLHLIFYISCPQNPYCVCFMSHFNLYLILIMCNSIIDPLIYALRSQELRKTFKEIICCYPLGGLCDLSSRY

Take `Cc1[nH]c2ccccc2c1CCN1C[C@H](CCCNC(=N)N)N(C(=O)[C@H](N)Cc2ccc3ccccc3c2)C[C@H]1C` [Example 8, N-(3-{1-(2(R)-Amino-3-naphthalen-2-yl-propionyl)-5(R)-methyl-4-[2-(2-methyl-1H-indol-3-yl)-ethyl]-piperazin-2(S)-yl}-propyl)-guanidine]: the “Efficacy/Intrinsic Activity” value on MC4-R [1] and at MC4-R [3] was “None” throughout. The “intrinsic activity at MC4-R in a normal system” value (from here on “intrinsic activity at MC4-R”) at MC4-R [2] came out at 0.9. In addition, the “functional status at MC4-R in cAMP assay” value on MC4-R [2] was “agonist (intrinsic activity of 0.7 (70%) or higher is classified as an agonist)”. For the same compound, the “functional status at MC1-R in cAMP assay” value on MC1-R [4] is “partial agonist (intrinsic activity between 0.1 (10%) and 0.7 (70%) is classified as a partial agonist)”. Moreover, the “functional status at MC5-R in cAMP assay” value at MC5-R [5] is on record as “agonist (intrinsic activity of 0.7 (70%) or higher is classified as an agonist)”. In addition, on MC3-R [6], the “functional status at MC3-R in cAMP assay” value was “no intrinsic activity (intrinsic activity below 0.1 (10%) is classified as inactive or having no intrinsic activity)”. In addition, the inhibition at 1 µM at MC1-R [7] is 73%; on MC5-R [8], 76%; on MC3-R [9], 57%; at MC4-R [11], 95%. For the same compound, the Ki at MC1-R [7] was 148 nM. In addition, the “Penile Erection ICV” value in experiment [10] (ICV) is listed as “No”. Besides, the penile erection response entry in [10] (ICV, 0.01 to 10 nM) is reported as “no penile erection response”.
For `Cc1ccc(CCN2C[C@H](CCCNC(=N)N)N(C(=O)[C@H](N)Cc3ccc4ccccc4c3)C[C@H]2C)cc1` [Example 5, N-{3-[1-(2(R)-Amino-3-naphthalen-2-yl-propionyl)-5(R)-methyl-4-(2-p-tolyl-ethyl)-piperazin-2(S)-yl]-propyl}-guanidine], a half-maximal effect on MC4-R [1] (EC50) was put at 117 nM. The “Efficacy/Intrinsic Activity” value at MC4-R [1] is recorded as 0.46; on MC4-R [3] it was “None”. Further, the “intrinsic activity at MC4-R” value at MC4-R [2] is listed as 0.6. Moreover, the “functional status at MC4-R in cAMP assay” value at MC4-R [2] was “partial agonist (intrinsic activity between 0.1 (10%) and 0.7 (70%) is classified as a partial agonist)”. In addition, at MC1-R [4], the “functional status at MC1-R in cAMP assay” value is “partial agonist (intrinsic activity between 0.1 (10%) and 0.7 (70%) is classified as a partial agonist)”. Besides, the “functional status at MC5-R in cAMP assay” value at MC5-R [5] is “partial agonist (intrinsic activity between 0.1 (10%) and 0.7 (70%) is classified as a partial agonist)”. Also, the “functional status at MC3-R in cAMP assay” value at MC3-R [6] is “no intrinsic activity (intrinsic activity below 0.1 (10%) is classified as inactive or having no intrinsic activity)”. Also, the inhibition at 1 µM on MC1-R [7] came to 32%; on MC5-R [8], 65%; on MC3-R [9], 61%; on MC4-R [11], 95%. At MC1-R [7], the Ki worked out at 135 nM. Besides, the “Penile Erection IV” value in [10] (IV) is reported as “No”. Further, in experiment [10] (IV, 0.3 to 30 μg/kg), the penile erection response entry is “no penile erection response”.
In turn, `C[C@@H]1CN(C(=O)[C@H](N)Cc2ccc3ccccc3c2)[C@@H](CCCNC(=N)N)CN1C(=O)CCCc1c[nH]c2ccccc12` [Example 7] came in with an EC50 at MC4-R [1] of 72 nM. The “Efficacy/Intrinsic Activity” value is on record as 0.38 on MC4-R [1] and “None” on MC4-R [3]. Moreover, the “intrinsic activity at MC4-R” value on MC4-R [2] is listed as 0.4. The “functional status at MC4-R in cAMP assay” value on MC4-R [2] was “partial agonist (intrinsic activity between 0.1 (10%) and 0.7 (70%) is classified as a partial agonist)”. Besides, at MC1-R [4], the “functional status at MC1-R in cAMP assay” value was “no intrinsic activity (intrinsic activity below 0.1 (10%) is classified as inactive or having no intrinsic activity)”. In addition, the “functional status at MC5-R in cAMP assay” value on MC5-R [5] was “no intrinsic activity (intrinsic activity below 0.1 (10%) is classified as inactive or having no intrinsic activity)”. Besides, the “functional status at MC3-R in cAMP assay” value on MC3-R [6] is “no intrinsic activity (intrinsic activity below 0.1 (10%) is classified as inactive or having no intrinsic activity)”. The inhibition at 1 µM on MC1-R [7] stood at 0%; at MC5-R [8], 62%; at MC3-R [9] it was 32%; on MC4-R [11], 88%. In addition, the Ki on MC1-R [7] was found to be 1200 nM. The “Penile Erection ICV” value in experiment [10] (ICV) is on record as “No”. For the same compound, the penile erection response result in experiment [10] (ICV, 0.01 to 10 nmol) was “no penile erection response”.
In the case of `C[C@@H]1CN(C(=O)[C@H](N)Cc2ccc3ccccc3c2)[C@@H](CCCNC(=N)N)CN1C(=O)Cc1c[nH]c2ccccc12` [Example 6, N-{3-[1-(2(R)-Amino-3-naphthalen-2-yl-propionyl)-4-(2-1H-indol-3-yl-acetyl)-5(R)-methyl-piperazin-2(S)-yl]-propyl}-guanidine], a half-maximal effect at MC4-R [1] (EC50) was put at 39 nM. The entries for the “Efficacy/Intrinsic Activity” value at MC4-R [1] and at MC4-R [3] were 0.43 and “None”, respectively. Moreover, the “intrinsic activity at MC4-R” value at MC4-R [2] was determined as 0.2. Also, at MC4-R [2], the “functional status at MC4-R in cAMP assay” value was “partial agonist (intrinsic activity between 0.1 (10%) and 0.7 (70%) is classified as a partial agonist)”. Moreover, at MC1-R [4], the “functional status at MC1-R in cAMP assay” value was “no intrinsic activity (intrinsic activity below 0.1 (10%) is classified as inactive or having no intrinsic activity)”. Also, the “functional status at MC5-R in cAMP assay” value at MC5-R [5] was “partial agonist (intrinsic activity between 0.1 (10%) and 0.7 (70%) is classified as a partial agonist)”. Moreover, the “functional status at MC3-R in cAMP assay” value on MC3-R [6] was “no intrinsic activity (intrinsic activity below 0.1 (10%) is classified as inactive or having no intrinsic activity)”. Further, the inhibition at 1 µM at MC1-R [7] was 20%; at MC5-R [8], 6%; at MC3-R [9], 35%; on MC4-R [11], 90%. Moreover, the Ki at MC1-R [7] came to 315 nM. The “Penile Erection IV” value in [10] (IV) is given as “No”. Also, the penile erection response result in [10] (IV, 0.3 to 30 μg/kg) is on record as “no penile erection response”.

One may read the inhibition as the drop in the measured response relative to a control, in per cent. Broadly, the Ki is a measure of affinity in units of concentration, obtained from inhibition or displacement. One may read the EC50 as the concentration giving half of the maximal effect. Read a high EC50 as lower potency in that assay.
